This is an account of results in patent publication US4704384A, “Aziridinyl quinone antitumor agents” (priority 1981, dated 1987).

The test system of one series is Lewis lung carcinoma. Briefly: Lewis lung carcinoma test (subcutaneous implant, IP drug). The format is in vivo, murine. The source says:
^c Subcutaneous tumor implantation, ip QD515 treatment schedule.

Another series has as its system ependymoblastoma. The series is classed as in vivo, murine. Conditions: for survivors, EM: parentheses, per 6. The text has this: ^c Ic tumor implantation, ip QD15 treatment schedule.
(§1) A third IC tumor model, the ependymoblastoma system, was also studied. This system requires intracerebral implantation of a solid tumor fragment while the IC L1210 and IC P388 systems utilize IC inoculated ascites tumor fluid. All three use IP drug treatment however. […] Cures (survivors from the group of six mice on the last day of the experiment) are indicated.

For series [1], the system named is lymphocytic leukemia P388. The experiment in a line: Intracerebral (IC) P388 antitumor test. The series is classed as in vivo, murine. The note with it: for ILS: IP.
From the text: as §1

The test system of series [2] is lymphoid leukemia L1210.
From the text: ^b Ip tumor implantation, ip QD19 treatment schedule.
^e ILS = [(treated survival + control survival) × 100%] - 100%
The L1210, P388 and B16 test systems described in Table II utilize intraperitoneal (IP) tumor implantation and IP drug treatment while the Lewis lung system employs subcutaneous tumor implantation and IP treatment. All three CNS tumor models (Table III) use intracerebral (IC) tumor implantation and IP treatment.
Aqueous saline solution (0.9%) was used as the drug vehicle. Normally, five doses were employed per experiment with the top dose chosen to produce toxicity. The lower doses were 50% of each preceeding dose.
Consistent with NCI antitumor test protocols, intraperitoneal (IP) administration of the drug was employed with all five tumor systems investigated. Tumor implantation was IP in the systems designated IP leukemia L1210 and P388 as well as B16 melanoma. Intracerebral (IC) tumor implantation was utilized in the IC L1210 and ependymoblastoma tumor systems.
Series [3] relates to lymphoid leukemia L1210. The series is classed as in vivo, murine.
From the text: as §1

In a further series the test system is B16 melanocarcinoma. The format is in vivo, murine.
The test system of series [4] is lymphocytic leukemia P388. The format is in vivo, murine. Conditions: for survivors, P388: Table XI, parentheses, per 6.
The nature of series [5]: Approximation of human dose from mouse optimum dose. The note with it: approximated from optimum dose of 2 mg/kg in the mouse. How it is done: Using the assumptions and constants of Freireich et al., Cancer Chemother. Rep., 50, 219 (1966), and an optimum dose of 2 mg/kg in the mouse, an average human maximum tolerated dose of 10 mg per dose can be approximated. An active dose range of 2.5-10 mg per dose can be estimated.

The conditions of series [6]: reported; Europe / Japan; cited from earlier work.
Series [7] can be described thus: Room temperature water solubility. The series is classed as physicochemical. How it is done:
In the following examples, all melting points are uncorrected and were recorded on a Thomas-Hoover capillary melting point apparatus. Elemental analyses were performed by NIAMDD, NIH, Bethesda, Md. Fluoranil, ethyleneimine and 2-methylethyleneimine were obtained commercially. […] New compounds were identified by nmr and ir spectroscopy. In the tetraamino derivatives, the methylene protons of the aziridine rings usually occurred as a singlet at δ2.0-2.2 in CDCl3 or DMSO-d6. This absorption appeared at δ2.40 (CDCl3) for compound 11. Carbonyl absorption frequencies (nujol mull) occurred in the range 1620-1640 cm^-1 for the tetraamino compounds. Satisfactory elemental analyses (+0.4% of calculated values) are indicated by elemental symbols in Table VII. Room temperature water solubilities were determined by the incremental addition (pipet) of water to a weighed amount of compound with shaking. The solubility values in Table VII must be considered as approximate.

For series [8], the system named is lymphoid leukemia L1210. Conditions: L1210 leukemia, earlier evaluation; cited from earlier work.
[9] abbreviates: IP, QD1-9, 6.25 mg/kg/injection.
The mark [10] stands for this setting: IP, QD1-9, 1.56 mg/kg/injection.
[11] abbreviates: IP, QD1-9, 3.12 mg/kg/injection.

Where “and” joins values, the source holds several entries; their conditions need not be identical. Identical values can stand only once. Entries after “also recorded” stand apart in the source; their conditions may differ. Like-named read-outs stand apart in the source and are kept apart here. Some results are limits rather than exact numbers.

By ILS is commonly meant the gain in survival time of treated over control animals, in per cent. Take `CCOC(=O)NC1=C(N2CC2)C(=O)C(NC(=O)OCC)=C(N2CC2)C1=O` [Compound 9, 2,5-DIAZIRIDINYL-3,6-BIS(CARBOETHOXYAMINO)-1,4-BENZOQUINONE]: the “activity in Lewis lung” value with Lewis lung carcinoma is “Marginal activity”. In addition, the ILS in the series on Lewis lung carcinoma (IP, 2.00 mg/kg/injection, 2 mg/kg) was 38% and 34%; in the series on ependymoblastoma (QD1-5, 0.25 mg/kg/injection, expt 144), 30%; in the series on ependymoblastoma (QD1-5, 0.50 mg/kg/injection, expt 144), 62%; with ependymoblastoma (QD1-5, 1.00 mg/kg/injection, expt 133 (day 99)), 348%; in the series with ependymoblastoma (QD1-5, 1.00 mg/kg/injection, expts 136/144 (day 60)), 126% and 171%; in the series on ependymoblastoma (QD1-5, 2.00 mg/kg/injection, expt 133 (day 99)) it was 349%. The ILS is 276% in the series on ependymoblastoma (QD1-5, 4.00 mg/kg/injection, expt 136 (day 60)); 7% and 2% in [1] (QD1-9, 0.39 mg/kg/injection); 27% and 25% in series [1] (QD1-9, 0.78 mg/kg/injection); 37% and 51% in series [1] (QD1-9, 1.56 mg/kg/injection); 39% and 31% in [1] (QD1-9, 3.12 mg/kg/injection); 32% with lymphoid leukemia L1210 [2] (IP, QD1-9, 0.88 mg/kg/injection). For the same compound, the ILS with lymphoid leukemia L1210 [2] (IP, QD1-9, 1.30 mg/kg/injection) is 60%; with lymphoid leukemia L1210 [2] (IP, QD1-9, 2.00 mg/kg/injection) it was 125%; with lymphoid leukemia L1210 [2] (setting [9]), 27%; in the series on lymphoid leukemia L1210 [2] (QD1-9, reproducible) it was greater than 100%; in the series with lymphoid leukemia L1210 [3] (setting [10]), 51% and 46%; in the series on lymphoid leukemia L1210 [3] (setting [11]), 84% and 79%. The ILS with lymphoid leukemia L1210 [3] (setting [9]) was 10% and 3%; in the series on lymphoid leukemia L1210 [3] (at OD 3.12 mg/kg), 79% and 84%; in the series with B16 melanocarcinoma (setting [10]) it was 38% and 44% and 58%; in the series with B16 melanocarcinoma (setting [11]), 58% and 43% and 70%; in series [4] (IP, QD1-9, 0.78 mg/kg/injection), 111% and 99%. For the same compound, the “activity in ependymoblastoma” value with ependymoblastoma is reported as “curative in the EM system; also recorded: very active”. In the series on ependymoblastoma, the optimum dose is 1 to 2 mg/kg. Further, the “Cures (animals alive per six)” value in the series on ependymoblastoma (1.00 mg/kg/injection, day 60 (expts 136/144)) was 1/6 and 5/6; in the series with ependymoblastoma (1.00 mg/kg/injection, day 99 (expt 133)) it was 3/6; in the series on ependymoblastoma (2.00 mg/kg/injection, day 60 (expts 136/144)), 5/6; in the series with ependymoblastoma (2.00 mg/kg/injection, day 99 (expt 133)), 4/6; with ependymoblastoma (4.00 mg/kg/injection, day 60), 4/6. For the same compound, the OD was 2 mg/kg/injection and 1 mg/kg/injection in the series on ependymoblastoma (Table IV, QD1-5); 1.5 mg/kg/injection and 3 mg/kg/injection in series [1] (Table IV, QD1-9); 3 mg/kg/injection and 2 mg/kg/injection and 4 mg/kg/injection in the series with lymphoid leukemia L1210 [2] (Table IV, QD1-9); 3.12 mg/kg with lymphoid leukemia L1210 [3]; 3 mg/kg/injection and 5 mg/kg/injection in the series with lymphoid leukemia L1210 [3] (Table IV, QD1-9); 3.12 mg/kg with B16 melanocarcinoma. Also, the OD with B16 melanocarcinoma (Table IV, QD1-9) is 3 mg/kg/injection; in [4] (Table IV, QD1-9), 1.6 mg/kg/injection and 0.8 mg/kg/injection. Further, the “survivors of 6 test mice” value in the series with ependymoblastoma (Table IV, day 60) is 5 and 4 and 6; in series [4] (Table IV, day 30), 1. In addition, the “ILS (%) EM” value in the series on ependymoblastoma (Table XI, outstanding activity) turned out to be 277%. Further, in the series on ependymoblastoma (Table XI), the “survivors, EM” value was determined as 5. In addition, the T-C weight change in the series on ependymoblastoma (day 5, 0.25 mg/kg/injection) was -1.5 grams; in the series on ependymoblastoma (day 5, 0.50 mg/kg/injection) it was -1.8 grams; in the series on ependymoblastoma (day 5, 8.00 mg/kg/injection), -5.0 grams; in series [4] (day 5, QD1-9, 6.25 mg/kg/injection), -6.1 grams. Further, the “activity in IC P388” value in series [1] is on record as “reproducible activity; also recorded: substantial”. For the same compound, the “% ILS” value in series [1] (Table IV summary, QD1-9, at OD) is 51% and 39%; with lymphoid leukemia L1210 [2] (Q4D schedule), 54%; in the series on lymphoid leukemia L1210 [2] (Table IV summary, QD1-9, at OD), 100%; with lymphoid leukemia L1210 [3] (Table IV summary, QD1-9, at OD) it was 84% and 79% and 63% and 58%; with B16 melanocarcinoma (Table IV summary, QD1-9, at OD), 94% and 70% and 62%. Moreover, in the series with lymphoid leukemia L1210 [2], the “activity in IP L1210” value is on record as “greater L1210 activity on the QD1-9 schedule; also recorded: very active”. Further, the “increase in life span (ILS)” value in the series on lymphoid leukemia L1210 [2] (Q4D and QD1-9 schedules) was greater than 25%. Besides, the “optimum dose (OD)” value with lymphoid leukemia L1210 [2] (QD1-9, mouse) was 2 mg/kg and 2 to 3 mg/kg; in series [4], 1 to 2 mg/kg. Further, the “activity in IC L1210” value in the series on lymphoid leukemia L1210 [3] is given as “reproducible activity; also recorded: substantial”. In the series on B16 melanocarcinoma, the “activity in B16 melanoma” value is “very active”. The “activity (ILS)” value in the series on B16 melanocarcinoma (as high as, at OD of 3.12 mg/kg) is no more than 70%. Further, the “activity in IP P388” value in [4] is “very active”. Moreover, the “survivors, P388” value in series [4] is recorded as 1. Besides, the “average human maximum tolerated dose” value in [5] is reported as roughly 10 mg per dose.

On to `O=C1C=C(N2CC2)C(=O)C(N2CC2)=C1N1CC1` [Compound 29, Trenimon], for which the “clinical activity” value in series [6] is listed as “Clinical activity has been reported”.

On to `COC(COC(N)=O)C1=C(N2CC2)C(=O)C(C)=C(N2CC2)C1=O` (centres unmarked) [Compound 30, carbazilquinone], for which the “clinical activity” value in series [6] is listed as “Clinical activity has been reported”.

On to `NC1=C(N2CC2)C(=O)C(N)=C(N2CC2)C1=O` [Compound 33, 2,5-DIZAIRIDINYL-3,6-DIAMINO-1,4-BENZOQUINONE], for which the “solubility” value in series [7] is reported as “so insoluble in any solvent”. Moreover, the “activity in ependymoblastoma” value in the series on ependymoblastoma is listed as “among the most active materials”. The OD in the series on ependymoblastoma (QD1-5, Table X) is 0.2 mg/kg/injection; in the series with lymphoid leukemia L1210 [2] (Day 1 only (1 injection), Table VIII) it was 1.0 mg/kg/injection and 0.5 mg/kg/injection; in the series with lymphoid leukemia L1210 [2] (QD1-9 (9 injections), Table VIII), 0.4 mg/kg/injection and 0.3 mg/kg/injection; in the series on lymphoid leukemia L1210 [3] (QD1-9, Table X) it was 0.3 mg/kg/injection; in series [4] (QD1-9, Table IX), 0.2 mg/kg/injection. Also, the ILS in the series with ependymoblastoma (QD1-5, at OD, Table X) is 215% and 177%; in the series on lymphoid leukemia L1210 [2] (Q4D, at OD, Table VIII), 161% and 124%; in the series on lymphoid leukemia L1210 [2] (QD1-9, at OD, Table VIII) it was 115% and 100%; with lymphoid leukemia L1210 [3] (QD1-9, at OD, Table X), 60% and 59%; with B16 melanocarcinoma (QD1-9, at OD, Table IX), 31% and 19%; in [4] (QD1-9, at OD, Table IX), 171% and 156%. Further, the “animals alive per 6” value with ependymoblastoma (QD1-5, day 60, at OD, Table X) is 4 and 6; with lymphoid leukemia L1210 [2] (Q4D, day 30, at OD, Table VIII) it was 3 and 2; in series [4] (QD1-9, day 30, at OD, Table IX), 1. Also, the “survivors, EM” value with ependymoblastoma (Table XI) is on record as 6. Also, the “survivors, IP L1210” value with lymphoid leukemia L1210 [2] (Table XI, parentheses, per 6) was determined as 3. In the series with lymphoid leukemia L1210 [3], the “activity in IC L1210” value is listed as “most active; also recorded: significant activity”. Also, the “survivors, P388” value in [4] stood at 1.

Turning to `O=C1C(N2CC2)=C(N2CC2)C(=O)C(N2CC2)=C1N1CC1` [tetraaziridinyl derivative, reference compound], in the series with lymphoid leukemia L1210 [8], the increase in life span (ILS) is on record as 39%.
